Test results as given in US8933089B2, “HIV inhibiting 5-amido substituted pyrimidines” (Janssen R & D Ireland, priority 2006, dated 2015).

What was measured:
Format in all cases: cell-based, HIV-1
[1] = test system: HIV strain IIIB (wild type); test: Cellular anti-HIV assay in MT4 LTR-EGFP cells, strain IIIB (wild type); selectivity index versus cytotoxicity in mock-infected MT4 CMV-EGFP cells; conditions: for EC50: Human immunodeficiency virus 1, 72 h, wild type HIV strain IIIB, MT4 LTR-EGFP cells, fluorescence, three days after infection, read-out: IIIB pEC50 (converted); for IIIB pSi: selectivity index = ratio of CC50 (mock-infected MT4 CMV-EGFP cells) to EC50 (IIIB), given as p value
Protocol: (§1) The antiviral activity of the compound of the present invention has been evaluated in the presence of wild type HIV and HIV mutants bearing mutations at the reverse transcriptase gene. The activity of the compounds is evaluated using a cellular assay which was performed according to the following procedure.
(§2) The human T-cell line MT4 is engineered with Green Fluorescent Protein (GFP) and an HIV-specific promoter, HIV-1 long terminal repeat (LTR). This cell line is designated MT4 LTR-EGFP, and can be used for the in vitro evaluation of anti-HIV activity of investigational compounds. In HIV-1 infected cells, the Tat protein is produced which upregulates the LTR promotor and finally leads to stimulation of the GFP reporter production, allowing to measure ongoing HIV-infection fluorometrically. Analogously, MT4 cells are engineered with GFP and the constitutional cytomegalovirus (CMV) promotor. This cell line is designated MT4 CMV-EGFP, and can be used for the in vitro evaluation of cytotoxicity of investigational compounds. In this cell line, GFP levels are comparably to those of infected MT4 LTR-EGFP cells. Cytotoxic investigational compounds reduce GFP levels of mock-infected MT4 CMV-EGFP cells.
(§3) Effective concentration values such as 50% effective concentration (EC50) can be determined and are usually expressed in μM. An EC50 value is defined as the concentration of test compound that reduces the fluorescence of HIV-infected cells by 50%. The 50% cytotoxic concentration (CC50 in μM) is defined as the concentration of test compound that reduces fluorescence of the mock-infected cells by 50%. The ratio of CC50 to EC50 is defined as the selectivity index (SI) and is an indication of the selectivity of the anti-HIV activity of the inhibitor. The ultimate monitoring of HIV-1 infection and cytotoxicity is done using a scanning microscope. Image analysis allows very sensitive detection of viral infection. Measurements are done before cell necrosis, which usually takes place about five days after infection, in particular measurements are performed three days after infection.
(§4) The columns IIIB, L100I, etc. in the table list the pEC50 values against various strains IIIB, L100I, etc.
Strain IIIB is wild type HIV strain

HIV strain L100I = test: Cellular anti-HIV assay in MT4 LTR-EGFP cells, mutant L100I; conditions: Human immunodeficiency virus 1, read-out: L100I pEC50 (converted)
Protocol: (§5) Because of the increasing emergence of drug resistant HIV strains, the present compounds were tested for their potency against clinically isolated HIV strains harbouring several mutations. These mutations are associated with resistance to reverse transcriptase inhibitors and result in viruses that show various degrees of phenotypic cross-resistance to the currently commercially available drugs such as for instance AZT and delavirdine.
as §1, §2, §3, §4

HIV strain L100I + K103N = test: Cellular anti-HIV assay in MT4 LTR-EGFP cells, mutant L100I + K103N; conditions: Human immunodeficiency virus 1, 72 h, read-out: L100I + K103N pEC50 (converted)
Protocol: as §5, §1, §2, §3, §4

HIV strain K103N = test: Cellular anti-HIV assay in MT4 LTR-EGFP cells, mutant K103N; conditions: Human immunodeficiency virus 1, read-out: K103N pEC50 (converted)
Protocol: as §5, §1, §2, §3, §4

HIV strain K103N + Y181C = test: Cellular anti-HIV assay in MT4 LTR-EGFP cells, mutant K103N + Y181C; conditions: Human immunodeficiency virus 1, 72 h, read-out: K103N + Y181C pEC50 (converted)
Protocol: as §5, §1, §2, §3, §4

HIV strain Y181C = test: Cellular anti-HIV assay in MT4 LTR-EGFP cells, mutant Y181C; conditions: Human immunodeficiency virus 1, read-out: Y181C pEC50 (converted)
Protocol: as §5, §1, §2, §3, §4

HIV strain Y188L = test: Cellular anti-HIV assay in MT4 LTR-EGFP cells, mutant Y188L; conditions: Human immunodeficiency virus 1, read-out: Y188L pEC50 (converted)
Protocol: as §5, §1, §2, §3, §4

HIV strain MDR = test: Cellular anti-HIV assay in MT4 LTR-EGFP cells, MDR strain; conditions: Human immunodeficiency virus 1, read-out: MDR pEC50 (converted)
Protocol: as §5, §1, §2, §3, §4
MDR refers to a strain that contains mutations L100I, K103N, Y181C, E138G, V1791, L2214F, V278V/I and A327A/V in HIV reverse transcriptase.

Structure (SMILES) | EC50 [1] | IIIB pSi [1] | EC50 (HIV strain L100I) | EC50 (HIV strain L100I + K103N) | EC50 (HIV strain K103N) | EC50 (HIV strain K103N + Y181C) | EC50 (HIV strain Y181C) | EC50 (HIV strain Y188L) | EC50 (HIV strain MDR)
Cc1cc(/C=C/C#N)cc(C)c1Nc1nc(Nc2ccc(C#N)cc2)ncc1C(=O)N1CCCCC1 [Compound 2] | 3.16 nM | >3.90 | 63.1 nM | 200 nM | 12.6 nM | 501 nM | 126 nM | 398 nM | 10000 nM
Cc1cc(/C=C/C#N)cc(C)c1Nc1nc(Nc2ccc(C#N)cc2)ncc1C(=O)Nc1ccccn1 [Compound 3] | 2 nM | 4.00 | 5.01 nM | 12.6 nM | 3.16 nM | 63.1 nM | 15.8 nM | 25.1 nM | 2510 nM
Cc1cc(/C=C/C#N)cc(C)c1Nc1nc(Nc2ccc(C#N)cc2)ncc1C(=O)N(C)c1ccccc1 [Compound 5] | 5.01 nM | >3.70 | 25.1 nM | 50.1 nM | 10 nM | 158 nM | 100 nM | 100 nM | 3980 nM
Cc1cc(/C=C/C#N)cc(C)c1Nc1nc(Nc2ccc(C#N)cc2)ncc1C(=O)N1CCN(C)CC1 [Compound 6] | 1.58 nM | >4.20 | 158 nM | 1260 nM | 5.01 nM | 398 nM | 100 nM | 316 nM | 10000 nM
Cc1cc(/C=C/C#N)cc(C)c1Nc1nc(Nc2ccc(C#N)cc2)ncc1C(=O)N(C)CCO [Compound 7] | 1.58 nM | 4.00 | 7.94 nM | 50.1 nM | 2 nM | 63.1 nM | 20 nM | 50.1 nM | 2000 nM
COCCCNC(=O)c1cnc(Nc2ccc(C#N)cc2)nc1Nc1c(C)cc(/C=C/C#N)cc1C [Compound 9] | 2.51 nM | >4.00 | 5.01 nM | 25.1 nM | 3.16 nM | 20 nM | 12.6 nM | 15.8 nM | 1000 nM
Cc1cc(/C=C/C#N)cc(C)c1Nc1nc(Nc2ccc(C#N)cc2)ncc1C(=O)NCC1COC(C)(C)O1 (stereo not drawn) [Compound 10] | 2.51 nM | >4.00 | 3.98 nM | 39.8 nM | 3.16 nM | 63.1 nM | 15.8 nM | 20 nM | 501 nM
CCOC(=O)CN(C)C(=O)c1cnc(Nc2ccc(C#N)cc2)nc1Nc1c(C)cc(/C=C/C#N)cc1C [Compound 11] | 2 nM | 3.40 | 7.94 nM | 50.1 nM | 3.98 nM | 79.4 nM | 39.8 nM | 25.1 nM | 1580 nM
Cc1cc(/C=C/C#N)cc(C)c1Nc1nc(Nc2ccc(C#N)cc2)ncc1C(=O)NCC1CCCO1 (stereo not drawn) [Compound 12] | 1.26 nM | 4.10 | 2.51 nM | 20 nM | 2.51 nM | 12.6 nM | 15.8 nM | 10 nM | 1000 nM
CCOC(=O)CCNC(=O)c1cnc(Nc2ccc(C#N)cc2)nc1Nc1c(C)cc(/C=C/C#N)cc1C [Compound 14] | 2.51 nM | >4.00 | 2.51 nM | 15.8 nM | 2.51 nM | 10 nM | 12.6 nM | 12.6 nM | 631 nM
Cc1cc(/C=C/C#N)cc(C)c1Nc1nc(Nc2ccc(C#N)cc2)ncc1C(=O)NCc1ccncc1 [Compound 15] | 3.16 nM | 3.70 | 12.6 nM | 63.1 nM | 3.16 nM | 20 nM | 15.8 nM | 20 nM | 200 nM
